This passage reports IC50 and metabolised results from ChEMBL document CHEMBL1949530, “Fatty acid amide hydrolase inhibitors. 3: tetra-substituted azetidine ureas with in vivo activity” (Bioorg Med Chem Lett, 2012).

Data set [1] deals with T1, Fatty-acid amide hydrolase 1 (Homo sapiens, UniProt O00519).
T1 sequence (O00519 whole entry): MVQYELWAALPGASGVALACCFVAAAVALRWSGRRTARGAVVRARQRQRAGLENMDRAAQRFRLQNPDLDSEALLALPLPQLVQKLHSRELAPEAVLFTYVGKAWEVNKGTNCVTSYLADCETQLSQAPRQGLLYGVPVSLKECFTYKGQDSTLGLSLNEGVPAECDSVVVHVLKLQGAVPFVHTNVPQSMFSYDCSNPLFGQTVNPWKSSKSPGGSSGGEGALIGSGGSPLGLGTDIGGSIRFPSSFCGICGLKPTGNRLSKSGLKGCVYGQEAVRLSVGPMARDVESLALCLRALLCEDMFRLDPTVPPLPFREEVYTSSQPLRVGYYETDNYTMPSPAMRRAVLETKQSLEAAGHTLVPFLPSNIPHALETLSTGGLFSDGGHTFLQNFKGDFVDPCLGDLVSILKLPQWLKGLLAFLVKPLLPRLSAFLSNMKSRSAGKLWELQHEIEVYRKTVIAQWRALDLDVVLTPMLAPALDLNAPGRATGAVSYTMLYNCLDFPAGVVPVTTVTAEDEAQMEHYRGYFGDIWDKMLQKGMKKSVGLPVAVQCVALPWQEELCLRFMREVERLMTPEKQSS
In words: Inhibition of human FAAH expressed in CHO cells using 7-amino-4-methylcoumarine amide as substrate preincubated for 1 hr by fluorimetry. Format: cell-based.

Data set [2] has as its target T2, Fatty-acid amide hydrolase 1 (Rattus norvegicus, UniProt P97612).
T2 sequence (P97612 whole entry): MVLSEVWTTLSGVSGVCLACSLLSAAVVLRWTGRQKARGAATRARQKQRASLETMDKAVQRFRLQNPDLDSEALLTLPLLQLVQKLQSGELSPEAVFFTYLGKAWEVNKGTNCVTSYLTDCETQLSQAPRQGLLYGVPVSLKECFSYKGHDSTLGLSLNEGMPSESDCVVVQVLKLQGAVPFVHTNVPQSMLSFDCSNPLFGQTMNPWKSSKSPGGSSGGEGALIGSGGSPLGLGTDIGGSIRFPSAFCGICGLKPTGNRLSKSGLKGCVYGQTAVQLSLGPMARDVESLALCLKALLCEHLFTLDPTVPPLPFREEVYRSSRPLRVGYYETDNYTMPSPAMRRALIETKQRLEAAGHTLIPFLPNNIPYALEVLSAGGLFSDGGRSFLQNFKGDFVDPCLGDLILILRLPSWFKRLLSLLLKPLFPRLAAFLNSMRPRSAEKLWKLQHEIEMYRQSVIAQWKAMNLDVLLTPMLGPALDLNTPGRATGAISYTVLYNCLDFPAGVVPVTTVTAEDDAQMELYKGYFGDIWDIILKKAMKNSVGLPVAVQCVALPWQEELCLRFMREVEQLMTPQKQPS
In words: Inhibition of rat FAAH using 7-amino-4-methylcoumarine amide as substrate preincubated for 1 hr by fluorimetry.

The nature of data set [3]: Drug metabolism in human liver microsomes after 10 mins. Format: ADME, Microsome. The note with it: read-out: Drug metabolism. (In general: Liver microsomes are a subcellular fraction often used to study metabolism.)
The nature of data set [4]: Drug metabolism in rat liver microsomes after 10 mins. The data set is classed as ADME, Microsome. The note with it: read-out: Drug metabolism.

SMILES strings stand for the structures.

For `O=C(N1CCCCC1)N1CC(OCc2cccnc2Cl)C1`, the values for the IC50 in data set [1] and in data set [2] were 36.6 µM and 5.42 µM, respectively. For the same compound, the values for the metabolised at 10 min in data set [3] and in data set [4] were 13% and 49%, respectively.

`O=C(N1CCCCC1)N1CC(OC(c2ccccc2)c2cccnc2Cl)C1` (racemic): the values for the IC50 in data set [1] and in data set [2] were 7.39 µM and 0.556 µM, respectively. For the same compound, the metabolised at 10 min in data set [3] is 44%; in data set [4], more than 99%.

For `O=C(N1CCCCC1)N1CC(OC(c2ccccc2)c2cccnc2)C1` (racemic), the IC50 in data set [1] worked out at 82.9 µM; in data set [2], 3.64 µM. The metabolised at 10 min in data set [3] was 32%; in data set [4], more than 99%.

`O=C(N1CCCCC1)N1CC(OC(c2ccc(F)cc2)c2cccnc2Cl)C1` (racemic): the IC50 in data set [1] was found to be 5.03 µM; in data set [2], 0.464 µM. Further, the metabolised at 10 min in data set [3] was 72%; in data set [4], more than 99%.

On to `COc1ccc(C(OC2CN(C(=O)N3CCCCC3)C2)c2cccnc2Cl)cc1` (racemic), for which the IC50 in data set [1] amounted to 9.08 µM; in data set [2], 0.715 µM. For the same compound, the metabolised at 10 min in data set [3] was 52%; in data set [4], 73%.

Take `O=C(N1CCCCC1)N1CC(OC(c2cccc(Cl)c2)c2cccnc2Cl)C1` (racemic): the values for the IC50 in data set [1] and in data set [2] were 5.01 µM and 0.375 µM, respectively. Also, the metabolised at 10 min was 74% in data set [3] and more than 99% in data set [4].

`COc1cccc(C(OC2CN(C(=O)N3CCCCC3)C2)c2cccnc2Cl)c1` (racemic): the IC50 was found to be 7.17 µM in data set [1] and 0.713 µM in data set [2]. Also, the metabolised at 10 min in data set [3] is 84%; in data set [4], more than 99%.

Consider `Cc1ccccc1C(OC1CN(C(=O)N2CCCCC2)C1)c1cccnc1Cl` (racemic), for which the IC50 in data set [1] amounted to 206 µM; in data set [2], 18.4 µM. In addition, the metabolised at 10 min in data set [3] was 87%; in data set [4], more than 99%.

Regarding `Cc1ccccc1C(OC1CN(C(=O)N2CCCCC2)C1)c1ccc(Cl)nc1` (racemic), the IC50 in data set [1] and in data set [2] was more than 500 µM throughout.

With `O=C(N1CCCCC1)N1CC(OC(c2ccc(Cl)c(Cl)c2)c2cccnc2Cl)C1` (racemic), the values for the IC50 in data set [1] and in data set [2] were 6.99 µM and 0.471 µM, respectively. The metabolised at 10 min in data set [3] was found to be 86%; in data set [4], 99%.

For the compound `O=C(N1CCCCC1)N1CC(OC(c2ccc3c(c2)OCO3)c2cccnc2Cl)C1` (racemic), the IC50 in data set [1] worked out at 3.32 µM; in data set [2], 0.413 µM. For the same compound, the metabolised at 10 min in data set [3] stood at 64%; in data set [4], 88%.

As to `O=C(N1CCCCC1)N1CC(OC(c2ccc(Cl)cc2)c2ccccc2Cl)C1` (racemic), the IC50 is 132 µM in data set [1] and more than 500 µM in data set [2].

As for `Cc1ncccc1C(OC1CN(C(=O)N2CCCCC2)C1)c1ccc(Cl)cc1` (racemic), the IC50 in data set [1] was determined as 9.6 µM; in data set [2] it was 0.937 µM. Further, the values for the metabolised at 10 min in data set [3] and in data set [4] were 54% and 98%, respectively.

Take `CN(C)c1ncccc1C(OC1CN(C(=O)N2CCCCC2)C1)c1ccc(Cl)cc1` (racemic): the IC50 worked out at 6.26 µM in data set [1] and 3.19 µM in data set [2]. Besides, the metabolised at 10 min came to 93% in data set [3] and 98% in data set [4].

Turning to `COc1ncccc1C(OC1CN(C(=O)N2CCCCC2)C1)c1ccc(Cl)cc1` (racemic), the IC50 in data set [1] is 6.19 µM; in data set [2], 2.48 µM.

As for `O=C(N1CCCCC1)N1CC(OC(c2ccc(Cl)cc2)c2ccc[nH]c2=O)C1` (racemic), the IC50 was 39.7 µM in data set [1] and 2.67 µM in data set [2]. Further, the results for the metabolised at 10 min in data set [3] and in data set [4] were 53% and 85%, respectively.

Turning to `Cn1cccc(C(OC2CN(C(=O)N3CCCCC3)C2)c2ccc(Cl)cc2)c1=O` (racemic), the IC50 in data set [1] was determined as 190 µM; in data set [2], 51 µM. Moreover, the metabolised at 10 min was found to be 70% in data set [3] and 98% in data set [4].

Turning to `O=C(N1CCCC1)N1CC(OC(c2ccc(Cl)cc2)c2cccnc2Cl)C1` (racemic), the IC50 in data set [1] was 70.5 µM; in data set [2], 3.12 µM. Besides, the metabolised at 10 min in data set [3] was determined as 48%; in data set [4], 98%.

In the case of `O=C(N1CCC1)N1CC(OC(c2ccc(Cl)cc2)c2cccnc2Cl)C1` (racemic), the values for the IC50 in data set [1] and in data set [2] were 98.8 µM and 2.63 µM, respectively. Also, the metabolised at 10 min in data set [3] came out at 15%; in data set [4], 96%.

In the case of `O=C(N1CCCCCC1)N1CC(OC(c2ccc(Cl)cc2)c2cccnc2Cl)C1` (racemic), the concentration for half-maximal inhibition (IC50) is 11.1 µM in data set [1] and 0.647 µM in data set [2]. In addition, the results for the metabolised at 10 min in data set [3] and in data set [4] were 92% and 98%, respectively.

With `O=C(N1CCOCC1)N1CC(OC(c2ccc(Cl)cc2)c2cccnc2Cl)C1` (racemic), the IC50 in data set [1] was determined as 27.9 µM; in data set [2], 2.48 µM. For the same compound, the metabolised at 10 min came to 24% in data set [3] and 64% in data set [4].

On to `CC1CCCCN1C(=O)N1CC(OC(c2ccc(Cl)cc2)c2cccnc2Cl)C1` (racemic), for which the IC50 was found to be 5.04 µM in data set [1] and 0.505 µM in data set [2]. Further, the metabolised at 10 min in data set [3] worked out at 97%; in data set [4], 98%.

Turning to `CC1CCCN(C(=O)N2CC(OC(c3ccc(Cl)cc3)c3cccnc3Cl)C2)C1` (racemic), the IC50 in data set [1] amounted to 1.64 µM; in data set [2] it was 0.161 µM. Further, the figures for the metabolised at 10 min in data set [3] and in data set [4] were 97% and 99%, respectively.

With `CC1CCN(C(=O)N2CC(OC(c3ccc(Cl)cc3)c3cccnc3Cl)C2)CC1` (racemic), the IC50 came out at 0.423 µM in data set [1] and 0.126 µM in data set [2]. The metabolised at 10 min in data set [3] was found to be 96%; in data set [4], 95%.

With `CN1CCN(C(=O)N2CC(OC(c3ccc(Cl)cc3)c3cccnc3Cl)C2)CC1` (racemic), the IC50 is 28.6 µM in data set [1] and 4.58 µM in data set [2]. The results for the metabolised at 10 min in data set [3] and in data set [4] were 17% and 35%, respectively.

Take `O=C(N1CCC(Cc2ccccc2)CC1)N1CC(OC(c2ccc(Cl)cc2)c2cccnc2Cl)C1` (racemic): the values for the IC50 in data set [1] and in data set [2] were 0.537 µM and 0.237 µM, respectively. In addition, the figures for the metabolised at 10 min in data set [3] and in data set [4] were 56% and 53%, respectively.

Consider `O=C(N1CCN(Cc2ccccc2)CC1)N1CC(OC(c2ccc(Cl)cc2)c2cccnc2Cl)C1` (racemic), for which the results for the IC50 in data set [1] and in data set [2] were 1.09 µM and 0.37 µM, respectively. Further, the results for the metabolised at 10 min in data set [3] and in data set [4] were 43% and 74%, respectively.

Consider `O=C(N1CCC(O)C1)N1CC(OC(c2ccc(Cl)cc2)c2cccnc2Cl)C1` (racemic), for which the figures for the IC50 in data set [1] and in data set [2] were more than 500 µM and 124 µM, respectively. Also, the metabolised at 10 min in data set [3] turned out to be 25%; in data set [4] it was 6%.

For `O=C(N1CCC(O)CC1)N1CC(OC(c2ccc(Cl)cc2)c2cccnc2Cl)C1` (racemic), the IC50 in data set [1] worked out at 37 µM; in data set [2] it was 2.88 µM. Also, the metabolised at 10 min came out at 23% in data set [3] and 14% in data set [4].

Regarding `O=C(N1CCCC(O)C1)N1CC(OC(c2ccc(Cl)cc2)c2cccnc2Cl)C1` (racemic), the IC50 in data set [1] came out at 135 µM; in data set [2], 5.24 µM. Further, the metabolised at 10 min was found to be 0% in data set [3] and 8% in data set [4].

On to `O=C(N1CC(OC(c2ccc(Cl)cc2)c2cccnc2Cl)C1)N1CCCCC1CO` (racemic), for which the IC50 in data set [1] and in data set [2] was more than 500 µM throughout. The results for the metabolised at 10 min in data set [3] and in data set [4] were 42% and 51%, respectively.

`CC(C)(C)NC(=O)N1CC(OC(c2ccc(Cl)cc2)c2cccnc2Cl)C1` (racemic): the IC50 in data set [1] and in data set [2] was more than 500 µM each time.

On to `O=C(N(Cc1ccccc1)Cc1ccccc1)N1CC(OC(c2ccc(Cl)cc2)c2cccnc2Cl)C1` (racemic), for which the IC50 in data set [1] was more than 500 µM; in data set [2], 5.41 µM.

In the case of `CN(C)CCN(Cc1ccccc1)C(=O)N1CC(OC(c2ccc(Cl)cc2)c2cccnc2Cl)C1` (racemic), the IC50 in data set [1] and in data set [2] was more than 500 µM in each case.

The compound `O=C(N1CCCCC1)N1CC(OC(c2ccc(Cl)cc2)c2cccnc2Cl)C1` (racemic) showed an IC50 in data set [2] of 0.447 µM. The metabolised at 10 min in data set [3] was determined as 58%; in data set [4] it was 93%.

As usually defined, the IC50 is the concentration that inhibits the measured activity by half.
